Measured values as given in article PMC11637378, “Optogenetic screening of MCT1 activity implicates a cluster of non-steroidal anti-inflammatory drugs (NSAIDs) as inhibitors of lactate transport” (PLOS ONE, 2024).

Legend:
parent strain (SAWy518) [1] = assay: microbe, parasite or virus in culture; parameters: species or system Saccharomyces cerevisiae SAWy518; Off-target growth counter-screen, OD600 as per cent of untreated wells, strain lacking MCT1; details: 18.5 h; sheet Primary Screen - final;; off-target growth of parent strain, about 18 h
Method: Cells were grown for 18 hours prior to OD measurement. Fill represents manual compound grouping based on compound class or target. OD600 is reported in Tecan units. […] The drug library used in this study for the initial screen and rescreen was provided by the Small Molecule Screening Center at Princeton University, through a collaboration with Dr. Hahn Kim. […] Follow-up analysis (IC50 determinations) on library compounds was performed using compounds purchased from outside sources. […] Stocks were then diluted 100-fold into media containing 0.01 OD600 inoculation of yeast, to achieve the final concentrations listed. Where compounds were added manually (for example 10 μM AZD3965 addition) stock concentrations were diluted by a factor of 100-fold regardless of scale, resulting in a final concentration of 1% v/v DMSO which is well tolerated by yeast.

parent strain (SAWy518) [2] = test system: parent strain (SAWy518)

Compound: O=C(/C=C/c1ccc(O)cc1)CC(=O)/C=C/c1ccc(O)cc1 [Bisdemethoxycurcumin]
- viability at 10 µM (parent strain (SAWy518) [1]): 99.4%
- OffScreen_percentage (parent strain (SAWy518) [2]): 99.4424 percentage
- Offscreen_18hr (parent strain (SAWy518) [2]): 0.8025
- Offscreen_24hr (parent strain (SAWy518) [2]): 0.8965
- Offscreen_42hr (parent strain (SAWy518) [2]): 0.9569
- Read_percentage (parent strain (SAWy518) [2]): 99.4424 percentage

Compound: COc1ccc(CCN(C)CCCOc2ccc(S(=O)(=O)c3c(C(C)C)c4ccccc4n3C)cc2)cc1OC.O=C(O)C(=O)O [SR-33805]
- viability at 10 µM (parent strain (SAWy518) [1]): 96%
- OffScreen_percentage (parent strain (SAWy518) [2]): 95.9851 percentage
- Offscreen_18hr (parent strain (SAWy518) [2]): 0.7746
- Offscreen_24hr (parent strain (SAWy518) [2]): 0.9061
- Offscreen_42hr (parent strain (SAWy518) [2]): 0.9635
- Read_percentage (parent strain (SAWy518) [2]): 95.9851

Compound: O=C(O)c1ccc(-n2nc(-c3ccccc3O)nc2-c2ccccc2O)cc1 [Deferasirox]
- viability at 10 µM (parent strain (SAWy518) [1]): 96%
- OffScreen_percentage (parent strain (SAWy518) [2]): 95.9727 percentage
- Offscreen_18hr (parent strain (SAWy518) [2]): 0.7745
- Offscreen_24hr (parent strain (SAWy518) [2]): 0.8724
- Offscreen_42hr (parent strain (SAWy518) [2]): 0.9291
- Read_percentage (parent strain (SAWy518) [2]): 95.9727 percentage

Compound: CC(C)(Oc1ccc(C2CC2(Cl)Cl)cc1)C(=O)O (stereo not drawn) [Ciprofibrate]
- viability at 10 µM (parent strain (SAWy518) [1]): 92.4%
- OffScreen_percentage (parent strain (SAWy518) [2]): 92.3916 percentage
- Offscreen_18hr (parent strain (SAWy518) [2]): 0.7456
- Offscreen_24hr (parent strain (SAWy518) [2]): 0.866
- Offscreen_42hr (parent strain (SAWy518) [2]): 0.9088
- Read_percentage (parent strain (SAWy518) [2]): 92.3916 percentage

Compound: COc1ncc(-c2ccc3nccc(-c4ccnnc4)c3c2)cc1NS(=O)(=O)c1ccc(F)cc1F [GSK2126458]
- viability at 10 µM (parent strain (SAWy518) [1]): 90.1%
- OffScreen_percentage (parent strain (SAWy518) [2]): 90.1487 percentage
- Offscreen_18hr (parent strain (SAWy518) [2]): 0.7275
- Offscreen_24hr (parent strain (SAWy518) [2]): 0.8997
- Offscreen_42hr (parent strain (SAWy518) [2]): 0.9503
- Read_percentage (parent strain (SAWy518) [2]): 90.1487 percentage

Compound: COc1cccc2c1[C@@H]1CN(CCCCn3c(=O)[nH]c4c(sc5ncc(-c6ccccc6)nc54)c3=O)C[C@@H]1CO2 [Fiduxosin]
- viability at 10 µM (parent strain (SAWy518) [1]): 97.5%
- OffScreen_percentage (parent strain (SAWy518) [2]): 97.5341 percentage
- Offscreen_18hr (parent strain (SAWy518) [2]): 0.7871
- Offscreen_24hr (parent strain (SAWy518) [2]): 0.8863
- Offscreen_42hr (parent strain (SAWy518) [2]): 0.944
- Read_percentage (parent strain (SAWy518) [2]): 97.5341 percentage

Compound: C=CCOC(Cn1ccnc1)c1ccc(Cl)cc1Cl (stereo not drawn) [Enilconazole]
- viability at 10 µM (parent strain (SAWy518) [1]): 100%
- OffScreen_percentage (parent strain (SAWy518) [2]): 100.372 percentage
- Offscreen_18hr (parent strain (SAWy518) [2]): 0.81
- Offscreen_24hr (parent strain (SAWy518) [2]): 0.8908
- Offscreen_42hr (parent strain (SAWy518) [2]): 0.9485
- Read_percentage (parent strain (SAWy518) [2]): 100.372 percentage

Compound: O=C1C[C@@H](c2ccc(O)cc2)Oc2cc(O)cc(O)c21 [Naringenin]
- viability at 10 µM (parent strain (SAWy518) [1]): 102%
- OffScreen_percentage (parent strain (SAWy518) [2]): 102.107 percentage
- Offscreen_18hr (parent strain (SAWy518) [2]): 0.824
- Offscreen_24hr (parent strain (SAWy518) [2]): 0.9129
- Offscreen_42hr (parent strain (SAWy518) [2]): 0.9733
- Read_percentage (parent strain (SAWy518) [2]): 102.107 percentage

Compound: N#CC(=C(\N)Sc1ccccc1N)/C(C#N)=C(/N)Sc1ccccc1N [U0126]
- viability at 10 µM (parent strain (SAWy518) [1]): 91.1%
- OffScreen_percentage (parent strain (SAWy518) [2]): 91.0905 percentage
- Offscreen_18hr (parent strain (SAWy518) [2]): 0.7351
- Offscreen_24hr (parent strain (SAWy518) [2]): 0.8786
- Offscreen_42hr (parent strain (SAWy518) [2]): 0.95
- Read_percentage (parent strain (SAWy518) [2]): 91.0905

Compound: CCC(C)n1ncn(-c2ccc(N3CCN(c4ccc(OCC5COC(Cn6cncn6)(c6ccc(Cl)cc6Cl)O5)cc4)CC3)cc2)c1=O (stereo not drawn) [Itraconazole]
- viability at 10 µM (parent strain (SAWy518) [1]): 90.9%
- OffScreen_percentage (parent strain (SAWy518) [2]): 90.9418 percentage
- Offscreen_18hr (parent strain (SAWy518) [2]): 0.7339
- Offscreen_24hr (parent strain (SAWy518) [2]): 0.8546
- Offscreen_42hr (parent strain (SAWy518) [2]): 0.8998
- Read_percentage (parent strain (SAWy518) [2]): 90.9418 percentage

Compound: O=C(C1CCCCC1)N1CC(=O)N2CCc3ccccc3C2C1 (stereo not drawn) [Praziquantel]
- viability at 10 µM (parent strain (SAWy518) [1]): 99.9%
- OffScreen_percentage (parent strain (SAWy518) [2]): 99.8637 percentage
- Offscreen_18hr (parent strain (SAWy518) [2]): 0.8059
- Offscreen_24hr (parent strain (SAWy518) [2]): 0.8815
- Offscreen_42hr (parent strain (SAWy518) [2]): 0.9399
- Read_percentage (parent strain (SAWy518) [2]): 99.8637 percentage

Compound: O=C1CC(c2ccc(O)cc2)Oc2ccccc21 (stereo not drawn)
- viability at 10 µM (parent strain (SAWy518) [1]): 90.8%

Compound: CN1C(C(=O)Nc2ccccn2)=C(O)c2ccccc2S1(=O)=O [Piroxicam]
- viability at 10 µM (parent strain (SAWy518) [1]): 95.2%

Compound: O=C(/C=C/c1ccc(O)cc1)c1ccc(O)cc1O [Isoliquiritigenin]
- viability at 10 µM (parent strain (SAWy518) [1]): 101%
- OffScreen_percentage (parent strain (SAWy518) [2]): 101.326 percentage
- Offscreen_18hr (parent strain (SAWy518) [2]): 0.8177
- Offscreen_24hr (parent strain (SAWy518) [2]): 0.9161
- Offscreen_42hr (parent strain (SAWy518) [2]): 0.9757
- Read_percentage (parent strain (SAWy518) [2]): 101.326 percentage

Compound: COc1c(O)cc2oc3cc(O)c(CC=C(C)C)c(O)c3c(=O)c2c1CC=C(C)C [alpha-mangostin]
- viability at 10 µM (parent strain (SAWy518) [1]): 90%
- OffScreen_percentage (parent strain (SAWy518) [2]): 89.9628 percentage
- Offscreen_18hr (parent strain (SAWy518) [2]): 0.726
- Offscreen_24hr (parent strain (SAWy518) [2]): 0.8801
- Offscreen_42hr (parent strain (SAWy518) [2]): 0.9296
- Read_percentage (parent strain (SAWy518) [2]): 89.9628 percentage

Compound: CC/C(=C(/CC)c1ccc(O)cc1)c1ccc(O)cc1 [Diethylstilbestrol]
- viability at 10 µM (parent strain (SAWy518) [1]): 103%
- OffScreen_percentage (parent strain (SAWy518) [2]): 102.565 percentage
- Offscreen_18hr (parent strain (SAWy518) [2]): 0.8277
- Offscreen_24hr (parent strain (SAWy518) [2]): 0.9171
- Offscreen_42hr (parent strain (SAWy518) [2]): 0.9776
- Read_percentage (parent strain (SAWy518) [2]): 102.565 percentage

Compound: O=C1c2ccc(Nc3ccc(F)cc3F)cc2CCc2ccc(OC[C@H](O)CO)cc21 [Skepinone-L]
- viability at 10 µM (parent strain (SAWy518) [1]): 96.9%
- OffScreen_percentage (parent strain (SAWy518) [2]): 96.8897 percentage
- Offscreen_18hr (parent strain (SAWy518) [2]): 0.7819
- Offscreen_24hr (parent strain (SAWy518) [2]): 0.9197
- Offscreen_42hr (parent strain (SAWy518) [2]): 0.985
- Read_percentage (parent strain (SAWy518) [2]): 96.8897

Compound: CC(C(=O)O)c1ccc2c(c1)[nH]c1ccc(Cl)cc12 (stereo not drawn) [Carprofen]
- viability at 10 µM (parent strain (SAWy518) [1]): 90.2%
- OffScreen_percentage (parent strain (SAWy518) [2]): 90.223 percentage
- Offscreen_18hr (parent strain (SAWy518) [2]): 0.7281
- Offscreen_24hr (parent strain (SAWy518) [2]): 0.8523
- Offscreen_42hr (parent strain (SAWy518) [2]): 0.8964
- Read_percentage (parent strain (SAWy518) [2]): 90.223 percentage

Compound: CCOc1nc2cccc(C(=O)OC(C)OC(=O)OC3CCCCC3)c2n1Cc1ccc(-c2ccccc2-c2nnn[nH]2)cc1 (stereo not drawn) [Candesartan Cilextil]
- viability at 10 µM (parent strain (SAWy518) [1]): 98.1%
- OffScreen_percentage (parent strain (SAWy518) [2]): 98.0917 percentage
- Offscreen_18hr (parent strain (SAWy518) [2]): 0.7916
- Offscreen_24hr (parent strain (SAWy518) [2]): 0.8922
- Offscreen_42hr (parent strain (SAWy518) [2]): 0.95
- Read_percentage (parent strain (SAWy518) [2]): 98.0917 percentage

Compound: CCCN1CCCC[C@H]1C(=O)Nc1c(C)cccc1C [Ropivacaine]
- viability at 10 µM (parent strain (SAWy518) [1]): 101%
- OffScreen_percentage (parent strain (SAWy518) [2]): 101.016 percentage
- Offscreen_18hr (parent strain (SAWy518) [2]): 0.8152
- Offscreen_24hr (parent strain (SAWy518) [2]): 0.8959
- Offscreen_42hr (parent strain (SAWy518) [2]): 0.9539
- Read_percentage (parent strain (SAWy518) [2]): 101.016

Compound: N#CC(c1ccc(Cl)cc1)c1c(Cl)cc(-n2ncc(=O)[nH]c2=O)cc1Cl (stereo not drawn) [Diclazuril]
- viability at 10 µM (parent strain (SAWy518) [1]): 92.7%
- OffScreen_percentage (parent strain (SAWy518) [2]): 92.7138 percentage
- Offscreen_18hr (parent strain (SAWy518) [2]): 0.7482
- Offscreen_24hr (parent strain (SAWy518) [2]): 0.8733
- Offscreen_42hr (parent strain (SAWy518) [2]): 0.9299
- Read_percentage (parent strain (SAWy518) [2]): 92.7138 percentage

Compound: CCCc1c(-c2ccc(O)cc2)nn(-c2ccc(O)cc2)c1-c1ccc(O)cc1
- viability at 10 µM (parent strain (SAWy518) [1]): 99%

Compound: O=c1c(O)c(-c2ccc(O)c(O)c2)oc2cc(O)cc(O)c12 [Quercetin]
- viability at 10 µM (parent strain (SAWy518) [1]): 96.1%

Compound: COCCN1C2=C(C(=O)c3ccccc3C2=O)N(Cc2cnccn2)C1C (stereo not drawn) [YM155]
- viability at 10 µM (parent strain (SAWy518) [1]): 104%

Compound: CC1=C(CC(=O)O)c2cc(F)ccc2/C1=C\c1ccc([S+](C)[O-])cc1 (stereo not drawn) [Sulindac]
- viability at 10 µM (parent strain (SAWy518) [1]): 103%

Compound: CS(=O)(=O)c1ccc(C2=C(c3ccccc3)C(=O)OC2)cc1 [Rofecoxib]
- viability at 10 µM (parent strain (SAWy518) [1]): 104%

Compound: O=C(/C=C/c1ccc(O)cc1)c1ccccc1 [4-hydroxychalcone]
- viability at 10 µM (parent strain (SAWy518) [1]): 104%

Compound: O=C(O)c1ccccc1-c1c2cc(I)c(=O)c(I)c-2oc2c(I)c(O)c(I)cc12 [Erythrosine]
- viability at 10 µM (parent strain (SAWy518) [1]): 101%

Compound: O=C(O)Cc1ccccc1Nc1c(Cl)cccc1Cl [Diclofenac]
- viability at 10 µM (parent strain (SAWy518) [1]): 101%

Compound: CC(Cc1ccc(O)c(O)c1)C(C)Cc1ccc(O)c(O)c1 (stereo not drawn) [Nordihydroguaiaretic_acid]
- viability at 10 µM (parent strain (SAWy518) [1]): 101%

Compound: C=CC(C1=CC(=O)C(OC)=CC1=O)c1ccc(O)cc1 (stereo not drawn) [DALBERGIONE, 4-METHOXY-4'-HYDROXY-]
- viability at 10 µM (parent strain (SAWy518) [1]): 102%
